Laboratory results as given in publication PMC9469500, “Targeting an Initiator Allergen Provides Durable and Expansive Protection against House Dust Mite Allergy” (ACS Pharmacology & Translational Science, 2022).

Columns and labels:
[1] = hepatocyte stability (rat); format: in vitro ADME; settings: hepatocytes
[2] = tested on: rat alveolar macrophage line NR8383; test: Cellular stability in macrophages; format: in vitro ADME; settings: 100 nM compound
Protocol: Cellular Stability of Compounds
The cellular stability of compounds in vitro was tested using rat airway epithelial cell line L2 and rat alveolar macrophage line NR8383 (ATCC©CRL-2192™). Assays were performed in replicate and the data expressed as mean ± s.e. mean. L2 cells were cultured to confluence in T25 flasks or 24 -well plates using Kaighn’s modification of Ham’s F12 medium (F12K). Cells were prepared for assay by washing 3 times with serum-free F12K. NR8383 Airway macrophages were grown in suspension culture in F12K, collected by centrifugation, washed in serum-free medium and aliquoted into test plates (1.4 x 10^6 cells/well). Both cell lines were treated with ADI compounds (100 nM) in serum -free F12K in a 5% CO 2 environment at 37 °C. Samples were removed for quantitative analysis by LC -MS-MS using appropriate multiple reaction monitoring transitions for each analyte. […]
n-Octanol (0.7 mL), pre -saturated with 10 mM PBS, pH7.4, was added to test compound (~1 mg) in a 2 mL HPLC vial followed by PBS (0. 7 mL), which had been pre -saturated with n -octanol. The mixture was shaken for 90 min before centrifugation for 10 min at 4,000 rpm. The upper organic layer (0.2 mL) and the aqueous layer (0.5 mL) were removed for analysis by LC-MS. Peak identity was confirmed by mass spectrometry and concentration assessed spectrophotometrically using a diode array detector. The log

plasma stability (rat) = format: in vitro ADME
[3] = tested on: rats sensitized to the HDM allergen extract; test: HDM extract challenge in rats sensitized to the HDM allergen extract (BAL cells and mediators); format: in vivo, BN rats
From the text: Control animals received saline vehicle treatment.

[4] = HDM 1, dosed 2 or 4 h before challenge, BAL 48 h
[5] = HDM 10, single i.t. aerosol dose 2 h before (15 μg/kg compound 1, 46 μg/kg compound 2), BAL 48 h
[6] = stronger challenge HDM 10, 15 μg/kg i.t. aerosol 2 h prior

half-life [1]: 1.97 h
CLint scaled ([1]; read-out: hepatocyte intrinsic clearance): 1.69 L/h/kg
cell stability [2]: 100; 100
remaining at 2 h (plasma stability (rat)): 100%
SMILES: CC(C)[C@H](NC(=O)[C@H](C)NC(=O)[C@@H](NC(=O)c1ccccc1)C(C)(C)C)C(=O)C(=O)NCc1ccccc1 [Compound 1, N-{(S)-1-[(S)-1-((S)-1-benzylaminooxalyl-2-methyl-propylcarbamoyl)-ethylcarbamoyl]-2,2-dimethyl-propyl}-benzamide]
BAL eosinophil responses ([3]; HDM 1 (1 μg Der p 1), dosed i.t. aerosol 2 or 4 h before challenge, BAL 48 h): suppressed
BAL neutrophil recruitment [3, 4]: No effect
CCL-2 in BAL fluid [3, 4]: suppressed
CCL-20 in BAL fluid [3, 4]: suppressed
IL-13 in BAL fluid [3, 4]: suppressed
IL-33 in BAL fluid [3, 4]: suppressed
TSLP in BAL fluid ([3]; HDM 1, dosed 2 h before challenge, BAL 48 h): suppressed
TSLP in BAL fluid ([3]; HDM 1, dosed 4 h before challenge, BAL 48 h, 'except' = not suppressed): except for TSLP
changes in BAL cells after HDM challenge ([3]; HDM 10 (10 μg Der p 1) i.t. aerosol, single i.t. aerosol dose 2 h before (15 μg/kg compound 1, 46 μg/kg compound 2), BAL 48 h): attenuated
BAL eosinophils after HDM challenge [3, 5]: eosinophil suppression
BAL monocytes/macrophages after HDM challenge [3, 5]: No effects
BAL neutrophil responses after HDM challenge [3, 5]: not significant
IL-6 responses in BAL [3, 6]: unaffected
IL-13 in BAL [3, 6]: inhibitory effects
IL-33 in BAL [3, 6]: inhibitory effects
TSLP in BAL [3, 6]: inhibitory effects
